Source: ChEMBL document CHEMBL1201862, “PubChem BioAssay data set” (2004)
Active and inactive are the calls of the source.

Columns and labels:
[1] = nonselective StAR promoter luciferase inhibitors – cell-based, luminescence, luciferase reporter, counter-screen for LRH-1 inverse agonist project, dose response (AID 651969); format: functional
Steroidogenic factor 1 = Steroidogenic factor 1 (Homo sapiens, UniProt Q13285); test: Counterscreen for inverse agonists of the liver receptor homolog-1 (LRH-1; NR5A2): Luminescence-based cell-based high throughput dose response assay to identify inverse agonists of the Steroidogenic Factor 1 Nuclear Receptor (SF1; NR5A1).; format: functional
Sequence of Steroidogenic factor 1 (Q13285 whole entry): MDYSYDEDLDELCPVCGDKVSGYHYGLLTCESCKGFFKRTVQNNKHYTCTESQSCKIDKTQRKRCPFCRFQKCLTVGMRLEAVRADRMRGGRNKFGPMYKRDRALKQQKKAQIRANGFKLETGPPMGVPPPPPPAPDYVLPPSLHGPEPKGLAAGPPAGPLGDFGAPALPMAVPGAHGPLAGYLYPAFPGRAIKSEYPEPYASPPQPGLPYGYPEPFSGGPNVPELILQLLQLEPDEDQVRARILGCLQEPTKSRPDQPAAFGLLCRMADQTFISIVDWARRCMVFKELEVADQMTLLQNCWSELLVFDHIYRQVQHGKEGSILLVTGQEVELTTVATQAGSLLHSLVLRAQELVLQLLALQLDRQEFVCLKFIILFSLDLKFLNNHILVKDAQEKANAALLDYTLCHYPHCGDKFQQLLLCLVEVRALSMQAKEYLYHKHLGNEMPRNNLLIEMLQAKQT

[2] = target: Nuclear receptor subfamily 5 group A member 2 (Homo sapiens, UniProt O00482); format: functional, cell-based;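 note: HEK293T cells transfected with LRH-1 and a StAR promoter luciferase reporter; potency for inhibitors that lower LRH-1 driven reporter light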
Sequence of Nuclear receptor subfamily 5 group A member 2 (O00482 whole entry, the tested form may be a part): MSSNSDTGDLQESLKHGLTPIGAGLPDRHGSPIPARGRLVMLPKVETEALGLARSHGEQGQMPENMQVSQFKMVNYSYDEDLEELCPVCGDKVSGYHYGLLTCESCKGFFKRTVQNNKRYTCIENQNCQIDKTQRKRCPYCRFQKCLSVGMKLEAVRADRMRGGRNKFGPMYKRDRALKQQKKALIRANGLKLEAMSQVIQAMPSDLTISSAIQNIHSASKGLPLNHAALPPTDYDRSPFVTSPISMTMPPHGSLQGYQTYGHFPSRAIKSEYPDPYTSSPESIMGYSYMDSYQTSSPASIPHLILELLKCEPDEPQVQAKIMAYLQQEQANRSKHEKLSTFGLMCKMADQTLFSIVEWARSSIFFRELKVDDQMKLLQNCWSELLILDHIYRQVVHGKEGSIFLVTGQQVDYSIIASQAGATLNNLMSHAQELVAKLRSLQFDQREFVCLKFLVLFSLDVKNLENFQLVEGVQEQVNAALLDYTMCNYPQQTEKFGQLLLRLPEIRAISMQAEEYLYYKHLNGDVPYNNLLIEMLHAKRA

[3] = target: T1, Carboxy-terminal domain RNA polymerase II polypeptide A small phosphatase 1 (Homo sapiens, UniProt Q9GZU7); test: CTDSP1 inhibitors, concentration-response, biochemical, absorbance readout, ultra-high-throughput screen actives (AID 540297); format: functional
T1 sequence (Q9GZU7 whole entry): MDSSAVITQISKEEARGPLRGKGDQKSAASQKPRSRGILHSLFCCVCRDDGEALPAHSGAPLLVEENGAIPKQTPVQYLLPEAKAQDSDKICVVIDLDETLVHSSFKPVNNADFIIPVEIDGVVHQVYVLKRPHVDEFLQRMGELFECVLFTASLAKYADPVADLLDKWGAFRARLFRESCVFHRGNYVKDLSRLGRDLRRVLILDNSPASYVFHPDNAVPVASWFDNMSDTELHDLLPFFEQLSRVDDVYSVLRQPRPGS

[4] = target: T2, Low molecular weight phosphotyrosine protein phosphatase (Homo sapiens, UniProt P24666); format: functional; conditions: read-out: IC50_Mean
T2 sequence (P24666 whole entry): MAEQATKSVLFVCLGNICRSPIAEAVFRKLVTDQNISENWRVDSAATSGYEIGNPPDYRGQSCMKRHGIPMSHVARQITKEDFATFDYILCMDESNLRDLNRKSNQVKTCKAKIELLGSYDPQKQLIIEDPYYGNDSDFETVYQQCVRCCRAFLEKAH

[5] = target: T2, Low molecular weight phosphotyrosine protein phosphatase; format: functional; conditions: read-out: IC50_Mean; remark: listed apart in the source
Beta-galactosidase = Beta-galactosidase (Escherichia coli, UniProt Q8VNN2); test: Dose response counterscreen for EBI2 assay utilizing the enzyme, b-galactosidase.; format: functional
Sequence of Beta-galactosidase (Q8VNN2 whole entry): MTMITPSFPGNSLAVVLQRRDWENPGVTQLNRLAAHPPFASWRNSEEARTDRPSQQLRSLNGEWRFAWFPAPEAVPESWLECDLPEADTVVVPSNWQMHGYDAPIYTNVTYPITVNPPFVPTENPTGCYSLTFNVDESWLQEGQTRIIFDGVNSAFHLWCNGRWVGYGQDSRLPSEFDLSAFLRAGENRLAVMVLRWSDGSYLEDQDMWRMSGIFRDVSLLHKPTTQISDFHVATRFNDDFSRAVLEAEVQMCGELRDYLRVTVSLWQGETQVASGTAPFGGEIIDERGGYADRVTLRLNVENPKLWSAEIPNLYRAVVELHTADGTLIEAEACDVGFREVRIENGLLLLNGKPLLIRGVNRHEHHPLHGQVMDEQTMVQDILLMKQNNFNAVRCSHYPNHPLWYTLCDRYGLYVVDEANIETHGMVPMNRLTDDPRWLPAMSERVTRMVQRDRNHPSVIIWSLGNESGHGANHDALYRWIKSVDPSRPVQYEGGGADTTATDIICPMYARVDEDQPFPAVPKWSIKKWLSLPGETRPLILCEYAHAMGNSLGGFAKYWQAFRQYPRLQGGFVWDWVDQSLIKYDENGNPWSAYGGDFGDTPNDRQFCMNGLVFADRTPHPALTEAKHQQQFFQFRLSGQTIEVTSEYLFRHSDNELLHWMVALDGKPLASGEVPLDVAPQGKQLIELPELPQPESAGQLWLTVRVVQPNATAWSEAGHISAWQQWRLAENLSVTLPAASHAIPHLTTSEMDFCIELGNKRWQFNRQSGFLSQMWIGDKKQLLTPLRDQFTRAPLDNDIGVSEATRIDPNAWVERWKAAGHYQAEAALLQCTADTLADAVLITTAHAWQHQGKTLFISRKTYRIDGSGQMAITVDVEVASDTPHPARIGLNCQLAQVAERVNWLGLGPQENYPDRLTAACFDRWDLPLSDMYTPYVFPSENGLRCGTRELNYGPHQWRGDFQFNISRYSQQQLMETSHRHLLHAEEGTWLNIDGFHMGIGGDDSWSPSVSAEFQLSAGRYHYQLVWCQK

[6] = target: T3, Methionyl-tRNA synthetase, putative (Trypanosoma brucei brucei, UniProt Q38C91); format: functional, Trypanosoma brucei brucei strain 927/4 GUTat10.1
T3 sequence (Q38C91 whole entry): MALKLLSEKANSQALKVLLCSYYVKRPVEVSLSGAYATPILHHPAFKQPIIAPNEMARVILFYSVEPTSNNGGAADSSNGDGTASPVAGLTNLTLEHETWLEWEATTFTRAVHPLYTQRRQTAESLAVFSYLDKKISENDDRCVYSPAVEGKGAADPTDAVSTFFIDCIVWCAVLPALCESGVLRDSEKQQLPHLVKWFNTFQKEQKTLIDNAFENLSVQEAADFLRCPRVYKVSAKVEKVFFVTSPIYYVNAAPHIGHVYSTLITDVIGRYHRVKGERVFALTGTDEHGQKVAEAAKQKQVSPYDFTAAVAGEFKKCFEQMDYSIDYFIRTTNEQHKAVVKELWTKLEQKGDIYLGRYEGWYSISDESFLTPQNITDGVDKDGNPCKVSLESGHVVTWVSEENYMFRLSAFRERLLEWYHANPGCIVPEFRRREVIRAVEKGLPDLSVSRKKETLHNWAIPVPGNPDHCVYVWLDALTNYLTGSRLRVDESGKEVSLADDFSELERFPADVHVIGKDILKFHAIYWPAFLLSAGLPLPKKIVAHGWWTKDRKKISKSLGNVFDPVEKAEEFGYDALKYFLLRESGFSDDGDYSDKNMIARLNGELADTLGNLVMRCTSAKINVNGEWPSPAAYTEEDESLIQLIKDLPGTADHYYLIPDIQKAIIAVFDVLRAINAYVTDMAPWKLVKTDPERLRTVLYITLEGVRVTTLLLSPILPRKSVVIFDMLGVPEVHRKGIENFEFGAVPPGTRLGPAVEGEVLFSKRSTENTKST

[7] = Counterscreen for inhibitors of Trypanosoma brucei methionyl tRNA synthetase (MetRS): Luminescence-based cell-based high throughput dose response assay to identify compounds that are cytotoxic to Jurkat human T lymphocyte cells.; format: functional
[8] = target: T3, Methionyl-tRNA synthetase, putative; format: functional, Trypanosoma brucei brucei strain 927/4 GUTat10.1; remark: listed apart in the source
[9] = target: T4, Sentrin-specific protease 1 (Homo sapiens, UniProt Q9P0U3); test: Dose response confirmation of small molecule inhibitors of the catalytic domain of the SUMO protease, SENP1 in a FRET assay.; format: functional; conditions: read-out: IC50_Mean
T4 sequence (Q9P0U3 whole entry): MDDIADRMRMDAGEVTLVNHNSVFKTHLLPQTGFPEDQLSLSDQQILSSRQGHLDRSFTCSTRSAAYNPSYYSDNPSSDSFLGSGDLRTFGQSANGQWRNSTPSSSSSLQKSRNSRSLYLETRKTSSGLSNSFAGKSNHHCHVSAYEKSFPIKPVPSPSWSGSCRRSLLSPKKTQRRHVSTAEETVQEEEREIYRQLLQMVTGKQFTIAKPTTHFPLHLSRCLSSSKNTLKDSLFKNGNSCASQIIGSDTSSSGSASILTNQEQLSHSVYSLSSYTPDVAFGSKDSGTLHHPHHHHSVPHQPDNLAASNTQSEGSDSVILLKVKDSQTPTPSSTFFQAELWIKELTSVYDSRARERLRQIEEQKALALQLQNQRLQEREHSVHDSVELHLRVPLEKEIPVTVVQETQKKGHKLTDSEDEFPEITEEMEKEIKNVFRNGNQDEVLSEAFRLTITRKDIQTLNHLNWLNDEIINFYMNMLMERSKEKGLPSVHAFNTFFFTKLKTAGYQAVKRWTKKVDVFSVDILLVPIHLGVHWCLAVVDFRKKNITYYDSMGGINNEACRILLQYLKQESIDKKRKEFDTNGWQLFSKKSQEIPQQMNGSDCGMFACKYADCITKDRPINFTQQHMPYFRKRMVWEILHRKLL

[10] = target: T4, Sentrin-specific protease 1; test: SENP1 catalytic domain blockers, concentration series – biochemical, kinetic FRET, dose response (AID 651697); format: functional; conditions: read-out: IC50_Mean
[11] = target: T5, Zinc finger protein mex-5 (Caenorhabditis elegans, UniProt Q9XUB2); test: potency of MEX-5 RNA-binding blockers – biochemical, C. elegans, fluorescence polarization, dose response (AID 1960)
T5 sequence (Q9XUB2 whole entry): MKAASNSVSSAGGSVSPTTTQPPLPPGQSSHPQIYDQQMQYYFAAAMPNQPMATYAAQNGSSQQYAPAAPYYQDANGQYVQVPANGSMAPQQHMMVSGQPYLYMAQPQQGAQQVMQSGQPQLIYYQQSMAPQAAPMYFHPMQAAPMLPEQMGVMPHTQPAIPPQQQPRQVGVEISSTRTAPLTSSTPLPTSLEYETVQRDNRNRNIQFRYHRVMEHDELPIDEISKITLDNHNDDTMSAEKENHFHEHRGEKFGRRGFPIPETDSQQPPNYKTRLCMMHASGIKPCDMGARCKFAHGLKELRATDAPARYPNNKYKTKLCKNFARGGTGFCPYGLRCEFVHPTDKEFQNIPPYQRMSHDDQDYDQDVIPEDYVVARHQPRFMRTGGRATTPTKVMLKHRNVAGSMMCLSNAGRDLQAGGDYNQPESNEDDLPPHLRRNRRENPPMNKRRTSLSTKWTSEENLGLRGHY

[12] = target: T6, RNA-binding protein pos-1 (Caenorhabditis elegans, UniProt G5EF15); test: disruptors of C. elegans POS-1 RNA interaction – biochemical, fluorescence polarization, dose response (AID 1964);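 note: purified POS-1 fused to maltose binding protein made in E. coli; potency of compounds blocking POS-1 binding to fluorescent RNA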
T6 sequence (G5EF15 whole entry): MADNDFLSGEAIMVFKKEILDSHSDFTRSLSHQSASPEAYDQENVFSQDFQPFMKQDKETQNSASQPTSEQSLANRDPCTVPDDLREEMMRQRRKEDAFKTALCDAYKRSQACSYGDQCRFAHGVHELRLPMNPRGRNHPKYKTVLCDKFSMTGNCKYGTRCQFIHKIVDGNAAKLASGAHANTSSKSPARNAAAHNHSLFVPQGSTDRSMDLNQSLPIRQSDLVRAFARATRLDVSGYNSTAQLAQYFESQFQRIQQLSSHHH

[13] = target: Photoreceptor-specific nuclear receptor (Homo sapiens, UniProt Q9Y5X4); format: functional, cell-based;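 note: CHO-S cells with Gal4-NCOR and VP16-NR2E3 two-hybrid luciferase reporter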
Sequence of Photoreceptor-specific nuclear receptor (Q9Y5X4 whole entry, the tested form may be a part): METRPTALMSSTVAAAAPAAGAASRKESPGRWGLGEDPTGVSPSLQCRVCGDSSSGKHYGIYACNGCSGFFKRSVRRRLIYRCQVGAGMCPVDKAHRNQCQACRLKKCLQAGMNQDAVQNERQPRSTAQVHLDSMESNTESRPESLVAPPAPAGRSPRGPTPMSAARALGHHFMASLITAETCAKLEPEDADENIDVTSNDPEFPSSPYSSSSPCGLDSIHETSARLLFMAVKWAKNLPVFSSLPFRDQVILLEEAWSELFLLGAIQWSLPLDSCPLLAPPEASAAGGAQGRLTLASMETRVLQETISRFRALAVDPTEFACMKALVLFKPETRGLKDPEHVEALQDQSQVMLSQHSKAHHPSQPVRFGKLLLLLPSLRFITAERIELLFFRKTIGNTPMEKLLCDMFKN

Fatty acid synthase [14] = target: T7, Fatty acid synthase (Homo sapiens, UniProt P49327); test: inhibition of human FAS-TE enzyme activity – biochemical, endpoint fluorescence intensity, uHTS hits, dose response (AID 624327); format: functional;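 note: fluorescence from hydrolysis of an O-methyl fluorescein acyl ester substrate by the enzyme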
T7 sequence (P49327 whole entry): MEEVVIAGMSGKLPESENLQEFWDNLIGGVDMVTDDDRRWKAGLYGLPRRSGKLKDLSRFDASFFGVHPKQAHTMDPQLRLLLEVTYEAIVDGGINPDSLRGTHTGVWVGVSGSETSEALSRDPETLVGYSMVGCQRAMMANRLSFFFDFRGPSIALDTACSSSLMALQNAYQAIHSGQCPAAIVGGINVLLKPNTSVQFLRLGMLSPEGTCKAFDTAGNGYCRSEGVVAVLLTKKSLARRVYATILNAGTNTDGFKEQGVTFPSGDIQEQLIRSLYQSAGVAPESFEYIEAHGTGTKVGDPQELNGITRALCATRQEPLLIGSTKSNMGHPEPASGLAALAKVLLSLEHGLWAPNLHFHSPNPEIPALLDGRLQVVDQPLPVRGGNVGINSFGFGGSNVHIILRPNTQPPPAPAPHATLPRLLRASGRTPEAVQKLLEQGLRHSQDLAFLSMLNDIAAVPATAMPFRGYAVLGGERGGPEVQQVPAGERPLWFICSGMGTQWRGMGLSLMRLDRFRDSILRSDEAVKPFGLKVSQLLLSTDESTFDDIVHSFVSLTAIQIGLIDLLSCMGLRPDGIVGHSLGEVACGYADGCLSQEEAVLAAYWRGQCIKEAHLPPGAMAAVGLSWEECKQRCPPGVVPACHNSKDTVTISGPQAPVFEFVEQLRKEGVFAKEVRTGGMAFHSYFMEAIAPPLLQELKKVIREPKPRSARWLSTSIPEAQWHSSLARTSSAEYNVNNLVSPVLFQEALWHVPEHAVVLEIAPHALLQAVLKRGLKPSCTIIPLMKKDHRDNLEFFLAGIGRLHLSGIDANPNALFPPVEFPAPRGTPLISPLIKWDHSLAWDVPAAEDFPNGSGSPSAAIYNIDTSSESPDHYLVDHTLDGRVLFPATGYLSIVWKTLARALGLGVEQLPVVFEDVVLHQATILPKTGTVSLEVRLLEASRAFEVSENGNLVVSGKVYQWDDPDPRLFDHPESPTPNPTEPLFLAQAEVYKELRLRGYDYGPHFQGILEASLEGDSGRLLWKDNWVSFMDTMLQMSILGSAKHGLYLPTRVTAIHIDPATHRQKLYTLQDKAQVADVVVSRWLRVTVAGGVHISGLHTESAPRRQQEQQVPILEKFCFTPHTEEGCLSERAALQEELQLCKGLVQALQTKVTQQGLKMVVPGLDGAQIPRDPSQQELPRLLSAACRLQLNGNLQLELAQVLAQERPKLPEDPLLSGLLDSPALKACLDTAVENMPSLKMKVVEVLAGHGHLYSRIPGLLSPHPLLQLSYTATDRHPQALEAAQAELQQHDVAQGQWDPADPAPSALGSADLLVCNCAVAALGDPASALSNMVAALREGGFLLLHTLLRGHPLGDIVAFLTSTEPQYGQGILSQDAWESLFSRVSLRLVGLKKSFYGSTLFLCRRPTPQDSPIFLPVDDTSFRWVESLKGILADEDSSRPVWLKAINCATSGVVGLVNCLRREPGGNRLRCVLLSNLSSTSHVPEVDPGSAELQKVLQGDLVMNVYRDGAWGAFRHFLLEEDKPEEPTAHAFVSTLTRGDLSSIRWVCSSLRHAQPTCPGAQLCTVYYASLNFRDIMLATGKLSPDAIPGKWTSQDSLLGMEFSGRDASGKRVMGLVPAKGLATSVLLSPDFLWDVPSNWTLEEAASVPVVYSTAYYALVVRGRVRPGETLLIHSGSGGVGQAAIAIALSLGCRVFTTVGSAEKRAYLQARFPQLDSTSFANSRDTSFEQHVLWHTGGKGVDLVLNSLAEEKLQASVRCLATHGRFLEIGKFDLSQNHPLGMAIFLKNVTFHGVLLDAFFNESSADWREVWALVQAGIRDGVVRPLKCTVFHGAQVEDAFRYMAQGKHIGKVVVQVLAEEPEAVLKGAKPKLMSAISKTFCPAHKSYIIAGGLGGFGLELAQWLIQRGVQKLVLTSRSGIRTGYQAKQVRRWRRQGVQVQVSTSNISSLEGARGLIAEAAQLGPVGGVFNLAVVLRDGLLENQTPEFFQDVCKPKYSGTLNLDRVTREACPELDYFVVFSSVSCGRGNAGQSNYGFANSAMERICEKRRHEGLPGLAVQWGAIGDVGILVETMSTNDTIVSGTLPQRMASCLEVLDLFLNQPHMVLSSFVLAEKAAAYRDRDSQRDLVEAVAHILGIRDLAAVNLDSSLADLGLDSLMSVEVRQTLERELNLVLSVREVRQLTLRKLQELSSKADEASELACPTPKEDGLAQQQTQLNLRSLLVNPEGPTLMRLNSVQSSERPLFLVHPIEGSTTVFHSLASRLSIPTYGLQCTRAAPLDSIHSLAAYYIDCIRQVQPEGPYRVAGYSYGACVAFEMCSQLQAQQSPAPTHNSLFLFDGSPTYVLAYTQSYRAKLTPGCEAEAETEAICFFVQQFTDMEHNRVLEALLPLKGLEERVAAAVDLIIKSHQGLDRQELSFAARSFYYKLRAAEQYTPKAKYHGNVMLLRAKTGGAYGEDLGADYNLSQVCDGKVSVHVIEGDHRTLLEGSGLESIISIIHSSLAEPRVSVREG

Fatty acid synthase [15] = target: T7, Fatty acid synthase; test: inhibition of human FAS-TE enzyme activity – biochemical, kinetic fluorescence intensity, dose response (AID 624326); format: functional;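 note: rate of fluorescence rise from hydrolysis of a fluorogenic O-methyl fluorescein ester substrate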
[16] = Trypanosoma cruzi growth suppression in host cells – NIH3T3 host cells, beta-gal luminescence, confirmation (AID 2044); format: functional, cell-based;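 note: intracellular parasites grown in NIH/3T3 mouse fibroblasts as host cells; luminescent beta-galactosidase reporter signal from transgenic T. cruzi replicating inside host cells; inhibitors lower the luminescence signal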
[17] = target: T8, Long-chain-fatty-acid--AMP ligase FadD28 (Mycobacterium tuberculosis, UniProt P9WQ59); test: Fluorescence polarization aasay to screen for inhibitors that compete for the binding of FadD28 to a bisubstrate Measured in Biochemical System Using Plate Reader - 2147-01_Inhibitor_Dose_CherryPick_Activity.; format: functional, Mycobacterium tuberculosis H37Rv
T8 sequence (P9WQ59 whole entry): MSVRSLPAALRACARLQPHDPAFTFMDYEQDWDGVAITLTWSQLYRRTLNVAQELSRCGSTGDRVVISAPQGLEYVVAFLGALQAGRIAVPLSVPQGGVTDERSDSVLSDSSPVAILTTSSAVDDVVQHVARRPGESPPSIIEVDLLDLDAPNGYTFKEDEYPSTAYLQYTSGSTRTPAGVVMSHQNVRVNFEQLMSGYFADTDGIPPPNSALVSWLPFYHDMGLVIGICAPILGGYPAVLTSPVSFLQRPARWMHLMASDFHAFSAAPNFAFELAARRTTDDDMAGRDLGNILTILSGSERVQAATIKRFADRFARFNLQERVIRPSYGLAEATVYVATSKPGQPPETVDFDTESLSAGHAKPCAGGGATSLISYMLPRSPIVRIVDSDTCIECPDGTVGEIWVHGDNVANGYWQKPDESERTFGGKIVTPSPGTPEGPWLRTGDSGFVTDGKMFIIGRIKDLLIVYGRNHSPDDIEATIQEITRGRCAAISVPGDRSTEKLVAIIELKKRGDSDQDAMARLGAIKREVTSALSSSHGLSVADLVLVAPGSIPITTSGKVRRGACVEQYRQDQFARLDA

[18] = NIH3T3 cell viability loss – ATP luminescence, mouse fibroblasts, counter-screen, dose response (AID 2010); format: functional, cell-based;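 note: cells exposed to compound for about 90 hours before reading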
[19] = activation of miR-122 Renilla sensor silencing – cell-based, Huh7 psiCHECK-miR122, Renilla luciferase, cherry-picked, dose response (AID 651956); format: functional;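 note: huh7 hepatoma cells stably carrying a psiCHECK-2 miR-122 sensor plasmid; renilla luciferase signal reporting endogenous miR-122 activity after 48 h compound exposure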
[20] = OVCAR8 cell viability loss – plate reader, dry powder samples, PAX8 project, dose response (AID 743197); format: functional, cell-based; conditions: OVCAR-8
Paired box protein Pax-8 = Paired box protein Pax-8 (Homo sapiens, UniProt Q06710); test: PAX8 transcriptional activity inhibition in RMG-I – RMG-I cells, luciferase, cherry-pick, dose response (AID 687027); format: functional, cell-based;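 note: luciferase reporter driven by Pax8 target thyroperoxidase promoter measured by SteadyGlo luminescence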
[21] = OVCAR-3 cell viability loss – plate reader, dry powder samples, PAX8 inhibitor project, dose response (AID 743044); format: functional, cell-based

Compound: O=C(CN1C(=O)CCC1=O)Nc1ccc(Br)cc1
- IC50 [1]: 35.9 µM (inactive)
- IC50 (Steroidogenic factor 1): 8.78 µM (active)
- IC50 [2]: 11.1 µM (inactive)

Compound: O=C(CSc1nc(-c2ccccc2)nc2ccc(F)cc12)Nc1cccc(C(=O)O)c1
- IC50 [3]: 6.6 µM (active)
- IC50 [4]: 42.2 µM (inactive)
- IC50 [5]: 21.4 µM (inactive)

Compound: COc1cc(OC)cc(C(=O)N2CCN(C(=O)COc3ccc4ccccc4c3)CC2)c1
- IC50 (Beta-galactosidase): > 80 µM (inactive)

Compound: CCC(C)N1CCN(C(=O)COc2ccc3ccccc3c2)CC1 (centres undefined)
- IC50 (Beta-galactosidase): > 80 µM (inactive)

Compound: O=C(CSc1n[nH]c2c3cc(F)ccc3nc-2n1)NCc1ccc(F)cc1
- IC50 [6]: 119 µM (inactive)
- IC50 [7]: 83.3 µM (inactive)
- IC50 [8]: 1.42 µM (active)

Compound: O=[N+]([O-])c1cc(F)c(N2CCCCCC2)cc1N1CCNCC1
- IC50 [1]: 35 µM (inactive)
- IC50 (Steroidogenic factor 1): 6.27 µM (active)
- IC50 [2]: 3.99 µM (active)

Compound: Cc1ccc(C)c(OCCC(=O)Nc2cccc(S(=O)(=O)NC3=NCCCCC3)c2)c1
- IC50 [6]: 98.3 µM (inactive)
- IC50 [7]: 83.3 µM (inactive)
- IC50 [8]: 46.4 µM (inactive)

Compound: Cc1ccc(/C=C/C(=O)N2CCC(Cc3ccccc3)CC2)cc1
- IC50 (Beta-galactosidase): > 80 µM (inactive)

Compound: CN(C)C(=O)CSc1ccc(S(=O)(=O)N2CCCC2)cn1
- IC50 [9]: 20.7 µM (inactive)
- IC50 [10]: 12.9 µM (active)

Compound: Cc1ccc2cc(/C=C(\C#N)C(N)=O)c(N3CCCCC3)nc2c1
- IC50 [9]: 36.2 µM (inactive)
- IC50 [10]: 18.4 µM (active)
- EC50 [11]: 30.7 µM (inconclusive)
- EC50 [12]: 50.6 µM (active)

Compound: CCCCCCCCCCCCN1[C@@H](CC(=O)O)c2cc(F)ccc2S1(=O)=O
- IC50 [13]: 4.28 µM (active)
- IC50 (Fatty acid synthase [14]): 2.83 µM (active)
- IC50 (Fatty acid synthase [15]): 2.62 µM (active)

Compound: COC(=O)c1ccc(COc2ccc(/C=N/NC(N)=S)cc2)o1
- EC50 [16]: 1.39 µM (active)
- IC50 [1]: 35.9 µM (inactive)
- IC50 (Steroidogenic factor 1): 1.97 µM (active)
- IC50 [2]: 9.77 µM (active)
- AC50 [17]: 3.63 µM (active)
- EC50 [18]: > 60 µM (not active)

Compound: C[C@@H]1CN([C@@H](C)CO)S(=O)(=O)c2ccc(C#CC3(O)CCCC3)cc2O[C@@H]1CN(C)C(=O)c1cccnc1
- AC50 [19]: 7.95 µM (active)

Compound: Cc1cc(C)n2c(Nc3c(C)cccc3C)c(-c3cccnc3)nc2n1
- IC50 [9]: 16.8 µM (active)
- IC50 [10]: 28.3 µM (inactive)

Compound: C[C@@H]1CCCCO[C@@H](CN(C)C(=O)Nc2ccc(C(F)(F)F)cc2)[C@H](C)CN([C@H](C)CO)C(=O)c2cc(NS(=O)(=O)c3ccc(F)cc3)ccc2O1
- AC50 [20]: > 70 µM (inactive)
- AC50 (Paired box protein Pax-8): 5.62 µM (active)
- AC50 [21]: 23.5 µM (active)
